From US20220125746A1, “METHOD OF PREVENTING OR TREATING TREATMENT-INDUCED GASTROINTESTINAL INJURY” (priority 2019, published 2022)
Structures can show the parent of a compound that is named as a salt.

Legend:
LGR5+ stem cells [1] = assay: LGR5+ stem cells, niche and DNA damage after CPT-11 in mice; type: in vivo, mouse
Protocol: LGR5(GFP)/TUNEL IF. Sections were prepared as described above. […] Sections were then washed in PBS, and TUNEL staining was performed with the ApopTag Fluorescein In Situ Apoptosis Detection Kit (Chemicon) according to the manufacturer's instructions (37, 46).
CD166 IF. Sections were prepared as described above.
p53 BP1 IF: Sections were prepared as described above. […] Sections were then incubated with AlexaFluor-594 goat anti-rabbit secondary antibodies (1:200; A11012; Invitrogen) for 1 hour at room temperature and counterstained with VectaShield plus DAPI.
Fresh mucosal scrapings from 10 cm of jejunum were washed in cold PBS, resuspended in 700 ul of RNA lysis buffer, and homogenized in a Dounce homogenizer. RNA was isolated using the Quick-RNA MiniPrep kit (Zymo Research) according to the manufacturer's instructions. Organoids were freed from Matrigel using Cell Recovery Solution (Corning), as described in, before RNA isolation. Complementary DNA was generated from 2 ug of total RNA from mice or ˜100 ng of total RNA from colonic organoids and was pooled from three mice or three wells of organoid culture per treatment group using SuperScript III reverse transcriptase (Invitrogen) and random primers. Gene expression was normalized to Gapdh. Representative results are shown, and similar results were obtained in at least three independent experiments. Details on mouse and human primers are found in Tables 1 and 2.

LGR5+ stem cells [2] = system: LGR5+ stem cells
Protocol: WT and Puma KO mice carrying the Lgr5-EGFP-IRES-creERT2 marking allele were treated with CPT-11 and PUMAi over 2 weeks as in FIGS. 5A-5G and analyzed for intestinal phenotypes. (FIG. 6A) GFP (LGR5) immunofluorescence in intestinal crypts. Arrows indicate LGR5^+ (GFP) crypts. Scale bar, 100 um. (FIG. 6B) Quantitation of intestinal crypts containing at least one GFP^+ (LGR5^+) cell. (FIG. 6C) Top: Olfm4 RNA ISH in intestinal crypts. Scale bar, 50 um. Asterisks indicate Olfm4+ crypt cells. Bottom: Percentage of crypts containing at least one Olfm4+ cell. (FIG. 6D) MMP7 immunofluorescence in intestinal crypts. Scale bar, 100 um. (FIG. 6E) Quantitation of MMP7+ crypt cells at the crypt base (CBC region). (FIG. 6F) Top: GFP (LGR5) and MMP7 immunofluorescence in intestinal crypts. Scale bar, 20 um. Asterisks indicate LGR5^+/MMP7^+ cell pairs. Bottom: Quantitation of LGR5^+/MMP7^+ cell pairs per crypt. In (FIG. 6A), (FIG. 6D), and (FIG. 6F), DAPI was used to stain nuclei. In (FIG. 6B), (FIG. 6C), (FIG. 6E), and (FIG. 6F), values are means+SEM; n=3 mice. *P<0.05, **P<0.01, and ***P<0.001 (one-way ANOVA with Tukey post hoc test).
LGR5 (GFP) IF. Sections were deparaffinized and rehydrated through graded ethanols. Antigen retrieval was performed by boiling for 10 minutes in 0.1 M citrate buffer (pH 6.0) with 1 mM EDTA. Non-specific antibody binding was blocked using 20% goat serum (Invitrogen) at room temperature for 30 min. […] Sections were then washed in PBS and mounted with VectaShield+DAPI (Vector Labs).
MMP7 IF. Sections were prepared as described above. Non-specific antibody binding was blocked using 20% chicken serum (Invitrogen) at room temperature for 30 min. Sections were washed in PBS and incubated overnight at 4 °C in a humidified chamber with 1:100 diluted goat anti-MMP7 (AF2967; R&D Systems). […] Sections were then washed in PBS and mounted with VectaShield+DAPI (Vector Labs) for visualization.
LGR5(GFP)/1VIMP7 IF. Sections were prepared as described above. Non-specific antibody binding was blocked using 20% chicken serum (Invitrogen) at room temperature for 30 min. Sections were then stained for GFP as described above, followed by staining for MMP7 as described.
ISH for Olfm4 was carried out with the RNAscope 2.0 BROWN kit (Advanced Cell Diagnostics) according to the manufacturer's instructions. Briefly, tissue sections were baked for 60 min at 60 ÅåC, then deparaffinized in xylene, and rehydrated through graded ethanols. Sections then underwent three pretreatment steps, probe hybridization, six amplification steps, development, and counterstaining.

C57BL/6J mice = assay: Survival and GI injury after three daily doses of CPT-11; type: in vivo, mouse
Excerpt: Immediately after sacrifice, about 10-cm portion of the jejunum was removed and carefully rinsed with ice-cold saline. The tissue was opened longitudinally and tacked to a foam board for fixation overnight in 10% formalin. Tissues were then rolled up into “swiss rolls” and embedded in paraffin. For tumor analysis, flank tumors were removed, measured, and cut into pieces for either formalin fixation or flash freezing in a dry ice/ethanol bath. Tissue sections (5 um) were deparaffinized and rehydrated through graded ethanols. Histological analysis was performed by hematoxylin and eosin (H&E) staining.
; CPT-11). […] . […] BH3-only proteins BIM and NOXA were not induced by CPT-11 or affected by Puma KO (FIG. 8F). […] . […] . Histological analysis confirmed lethal GI injury in WT and p53 KO mice on day 5, showing severe loss of crypts and shortening of villi, which was abrogated in Puma KO mice (FIG. 1F).

BIM/MCL-1 = molecular target: T1, BIM/MCL-1 (Homo sapiens, UniProt O43521); assay: Immunoprecipitation of HA-BIM / V5-Mcl-1 from 293 lysates; type: binding; settings: 25 uM, 15 min, anti-HA immunoprecipitation, western blot
T1 construct: expressed in transfected cells; host or cells: 293 cells; lysates used
T1 sequence (O43521 whole entry, species assumed): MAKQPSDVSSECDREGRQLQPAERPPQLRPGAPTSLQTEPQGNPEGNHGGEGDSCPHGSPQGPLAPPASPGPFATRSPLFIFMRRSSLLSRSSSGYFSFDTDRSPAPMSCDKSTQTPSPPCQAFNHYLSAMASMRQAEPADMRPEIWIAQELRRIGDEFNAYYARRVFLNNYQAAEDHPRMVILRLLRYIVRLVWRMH
Protocol: (§1) (FIG. 10A) Structure of the PUMA inhibitor lead compound (PUMAi). (FIG. 10B) Lysates of 293 cells transfected with individual plasmids for 24 hours were mixed in the indicated combinations. Lysates were incubated with vehicle or PUMA inhibitor (PUMAi, 25 μM) for 15 min before immunoprecipitation with an anti-HA antibody. The HA-bound proteins and input were analyzed by western blotting. (FIG. 10C) Lysates of 293 cells transfected with individual plasmids for 24 h were mixed in the indicated combinations. Lysates were incubated with vehicle or PUMA Inhibitor (PUMAi, 25 μM) for 15 min before immunoprecipitation with an anti-HA antibody. The HA-bound proteins and input were analyzed by western blotting. (FIG. 10D) Indicated colon cancer cell lines were treated with camptothecin (CPT, 500 nM) for 24 h. HCT 116 cells and PUMA KO HCT 116 cells have WT p53, others have no (KO) or mutant p53. Apoptosis was measured by nuclear fragmentation assay. Values are mean+SEM; n=3 independent experiments. (FIG. 10E) Cells were treated as in D for 24 h and analyzed by western blotting. Representative results are shown, and similar results were obtained in at least three independent experiments. […]

intestinal crypts = assay: CPT-11-induced intestinal crypt apoptosis in mice (TUNEL, active caspase-3)
Protocol: Puma+/+ (WT) and Puma−/− (Puma KO) mice (52) were generated in-house by heterozygote breeding. WT and Puma KO alleles were genotyped from genomic DNA isolated from tail snips, as described (52). p53−/− (p53 KO) mice were purchased from the Jackson Laboratory. […] All strains are in or have been backcrossed with the C57BL/6 background for more than 10 generations (F10). Mice were housed in microisolator cages in a room illuminated from 07:00 to 19:00 hours (12:12-hour light/dark cycle), with access to water and chow ad libitum.
Rehydrated sections were treated with 3% hydrogen peroxide (immunochemistry only), followed by antigen retrieval for 10 min in boiling 0.1 M citrate buffer (pH 6.0) with 1 mM EDTA. Apoptosis was analyzed by TUNEL staining with the ApopTag Peroxidase In Situ Apoptosis Detection kit (Chemicon International) according to the manufacturer's instructions.
Active caspase 3 IHC. Sections were deparaffinized and rehydrated through graded ethanols. Rehydrated sections were then treated with 3% hydrogen peroxide, followed by antigen retrieval for 10 minutes in boiling 0.1 M citrate buffer (pH 6.0) with 1 mM EDTA. Non-specific antibody binding was blocked using 20% goat serum (Invitrogen) at room temperature for 30 minutes.

[3] = system: colon cancer cell line DLD1; assay: PUMA-induced apoptosis inhibition in DLD1
Protocol: PUMAi was added to cells at 25 uM at the same time as CPT.
A minimum of 300 cells per treatment were analyzed in triplicate.

PUMA/BCL-xL = molecular target: T2, PUMA/BCL-xL (Homo sapiens, UniProt Q9BXH1); assay: Immunoprecipitation of HA-PUMA / V5-Bcl-xL from 293 lysates; type: binding; settings: 25 uM, 15 min, anti-HA immunoprecipitation, western blot
T2 construct: expressed in transfected cells; host or cells: HEK293 (human embryonic kidney 293) cells, Lipofectamine 2000; lysates used
T2 sequence (Q9BXH1 1-193): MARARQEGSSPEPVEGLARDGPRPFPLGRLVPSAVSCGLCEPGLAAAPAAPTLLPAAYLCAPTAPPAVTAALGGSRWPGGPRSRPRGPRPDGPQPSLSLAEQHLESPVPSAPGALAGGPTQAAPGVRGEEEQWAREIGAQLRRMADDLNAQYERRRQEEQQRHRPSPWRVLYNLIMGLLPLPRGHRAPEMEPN
Protocol: as §1

SMILES: OCCN1CCN(CC(O)COc2ccc3ccccc3c2)CC1 (centres unmarked) [PUMAi, 1-[4-(2-hydroxyethyl)-1-piperazinyl]-3-(2-naphthyloxy)-2-propanol dihydrochloride]
- crypt DNA damage by 53BP1 foci (LGR5+ stem cells [1]; 6 hours after single CPT-11 dose, vs control group): comparable
- crypt DNA damage by 53BP1 foci (LGR5+ stem cells [1]; 48 hours after a single dose, more so 120 hours after three doses of CPT-11): lower
- decrease of CPT-11-induced apoptosis of LGR5+ cells (LGR5+ stem cells [1]; LGR5-EGFP reporter mice, CPT-11 200 mg/kg, PUMAi 10 mg/kg 2 h before): > 70%
- suppression of TA marker CD44 mRNA (LGR5+ stem cells [1]; after CPT-11, intestinal mucosa): not by PUMAi
- activation of WNT and NOTCH responsive genes (qRT-PCR) (LGR5+ stem cells [1]; as early as 6 hours after CPT-11): largely suppressed
- CPT-11-induced expansion of CD166+ cells (LGR5+ stem cells [1]; by 96 hours): fully suppressed
- drop in Olfm4+ crypts (RNA ISH) (LGR5+ stem cells [2]; after six doses of CPT-11): 49%
- loss and mislocalization of MMP7+ cells and of MMP7+/LGR5+ contact (LGR5+ stem cells [2]; repeated CPT-11 treatment): suppressed
- survival at the LD90 of CPT-11 (C57BL/6J mice; CPT-11 215 mg/kg per day x3, PUMAi 10 mg/kg 2 h before each dose, WT mice): 70%
- CPT-11-induced lethality (C57BL/6J mice; CPT-11 180, 215, 250 mg/kg/day x3, PUMAi 10 mg/kg): decreased CPT-11-induced lethality at three different doses
- GI injury by histological analysis (C57BL/6J mice; day 5, CPT-11 215 mg/kg per day x3, compared to WT mice): reduced GI injury
- inhibition of BIM/MCL-1 interaction (BIM/MCL-1): not of BIM/MCL-1
- crypt apoptosis, PUMAi given after CPT-11 (intestinal crypts; PUMAi 10 mg/kg 1 hour after CPT-11 200 mg/kg, 6 h): still reduced apoptosis effectively
- TUNEL and active caspase-3 staining in crypts (intestinal crypts; PUMAi 10 mg/kg 2 h before CPT-11 200 mg/kg, 6 and 24 h, WT mice): reduced TUNEL and active caspase-3 staining preferentially in the CBCs
- crypt apoptosis in Puma KO mice (intestinal crypts; Puma KO mice, CPT-11 200 mg/kg, 6 h): did not further reduce crypt apoptosis
- Apoptosis inhibition of DLD1 [3]: 39%
- inhibition of PUMA/BCL-xL interaction (PUMA/BCL-xL): inhibit interaction of PUMA/BCL-xL
